Reference: paper PMC3914206

Tests used:
panel of 442 kinases [1] = molecular target: T1, panel of 442 kinases (Homo sapiens, UniProt Q9HAZ1); format: binding; conditions: Compound Concentration 10 µM
T1 construct: purchased KINOMEscan
Excerpt: (§1) We assessed the selectivity of members of this scaffold using the KINOMEscan methodology across a near comprehensive panel of 442 kinases [[18,27]].

panel of 442 kinases [2] = molecular target: T2, panel of 442 kinases (Homo sapiens, UniProt P29323); format: binding; conditions: Compound Concentration 10 µM
T2 construct: purchased KINOMEscan
T2 sequence (P29323 19-1055): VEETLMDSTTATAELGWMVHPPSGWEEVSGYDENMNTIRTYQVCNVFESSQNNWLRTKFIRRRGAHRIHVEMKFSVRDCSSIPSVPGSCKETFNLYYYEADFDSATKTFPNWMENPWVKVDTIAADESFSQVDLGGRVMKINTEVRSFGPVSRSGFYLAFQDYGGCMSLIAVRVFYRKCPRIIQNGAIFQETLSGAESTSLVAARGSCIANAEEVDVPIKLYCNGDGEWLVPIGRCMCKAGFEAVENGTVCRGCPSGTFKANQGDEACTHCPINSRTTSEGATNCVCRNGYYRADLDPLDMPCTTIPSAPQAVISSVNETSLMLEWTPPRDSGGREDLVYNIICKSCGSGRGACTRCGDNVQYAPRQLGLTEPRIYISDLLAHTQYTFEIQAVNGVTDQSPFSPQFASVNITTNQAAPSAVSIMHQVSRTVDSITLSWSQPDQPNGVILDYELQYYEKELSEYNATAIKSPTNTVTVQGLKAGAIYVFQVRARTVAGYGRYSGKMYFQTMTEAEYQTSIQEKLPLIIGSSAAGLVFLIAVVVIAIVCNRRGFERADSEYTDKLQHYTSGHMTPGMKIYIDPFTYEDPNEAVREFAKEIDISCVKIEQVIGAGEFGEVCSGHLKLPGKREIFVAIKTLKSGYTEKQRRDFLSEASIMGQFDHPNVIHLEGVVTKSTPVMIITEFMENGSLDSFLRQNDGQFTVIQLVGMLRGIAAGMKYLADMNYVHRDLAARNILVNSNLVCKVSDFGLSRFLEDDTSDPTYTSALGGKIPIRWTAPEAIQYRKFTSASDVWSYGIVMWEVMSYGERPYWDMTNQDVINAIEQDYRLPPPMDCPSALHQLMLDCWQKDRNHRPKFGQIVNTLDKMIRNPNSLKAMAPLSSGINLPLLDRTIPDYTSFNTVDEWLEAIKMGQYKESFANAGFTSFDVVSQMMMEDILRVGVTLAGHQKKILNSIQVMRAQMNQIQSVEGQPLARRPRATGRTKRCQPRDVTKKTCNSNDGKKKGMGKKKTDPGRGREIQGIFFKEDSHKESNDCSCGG
Excerpt: as §1

T1 sequence (Q9HAZ1 whole entry): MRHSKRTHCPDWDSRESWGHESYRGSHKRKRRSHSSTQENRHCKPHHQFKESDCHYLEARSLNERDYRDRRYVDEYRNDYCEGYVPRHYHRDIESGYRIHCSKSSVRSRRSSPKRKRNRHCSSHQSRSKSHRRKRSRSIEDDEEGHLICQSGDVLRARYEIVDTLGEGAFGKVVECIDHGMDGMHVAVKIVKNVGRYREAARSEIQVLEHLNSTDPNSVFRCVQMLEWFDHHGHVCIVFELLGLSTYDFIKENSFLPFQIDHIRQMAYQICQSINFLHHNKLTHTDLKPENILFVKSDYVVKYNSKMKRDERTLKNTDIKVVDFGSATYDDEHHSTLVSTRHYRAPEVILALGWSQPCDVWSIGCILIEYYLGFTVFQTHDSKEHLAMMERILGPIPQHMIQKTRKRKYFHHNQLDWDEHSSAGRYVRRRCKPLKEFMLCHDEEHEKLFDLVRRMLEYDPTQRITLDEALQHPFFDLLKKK

Compound | KINOMEscan: CLK4 (panel of 442 kinases [1]) | KINOMEscan: EPHB2 (panel of 442 kinases [2])
CCOc1cc(C(=O)N2CCC(N3CCN(C)CC3)CC2)ccc1Nc1ncc2c(n1)N(C1CCCC1)c1ccccc1C(=O)N2C [Compound 26] | 100 | 100
COc1cc(C(=O)N2CCC(N3CCN(C)CC3)CC2)ccc1Nc1ncc2c(n1)N(C1CCCC1)c1ccccc1C(=O)N2C [Compound 25, 11-cyclopentyl-2-((2-methoxy-4-(4-(4-methylpiperazin-1-yl)piperidine-1-carbonyl)phenyl)amino)-5-methyl-5H-benzo[e]pyrimido[5,4-b][1,4]diazepin-6(11H)-one] | 100 | 86
COc1cc(C(=O)N2CCC(N3CCN(C)CC3)CC2)ccc1Nc1ncc2c(n1)N1CCc3cccc(c31)C(=O)N2C [Compound 24] | 11 | 
COc1cc(C(=O)N2CCC(N3CCN(C)CC3)CC2)ccc1Nc1ncc2c(n1)N(C)c1ccccc1C(=O)N2C [15 (LRRK2-IN-1)] | 54 | 100
